Several values for one entry are separate records, joined by “and”; a condition that tells them apart may be missing. Equal entries are not always repeated.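 Five compound concentrations were applied to cells in 96-well plates for 48 hours; endpoints were derived by simple linear interpolation of the resulting dose-response curve. GI50: concentration for 50% inhibition of growth. TGI is the concentration that stops growth completely.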

Data on eight compounds can be found in PubChem BioAssay (NCI).

What all share (experiment): inhibition of tumour cell growth, NCI panel, 48 h
Test [1] deals with BT-549 breast.
In test [2] the test system is K-562 leukemia.
Test [3] concerns TK-10 renal.
Test [4] deals with UACC-62 melanoma.
The test system of test [5] is HOP-62 NSCLC.
The subject of test [6] is NCI-H522 lung.
Test [7] has as its system NCI-H460 lung.
Test [8] concerns CCRF-CEM leukemia.
In test [9] the test system is SF-539 CNS.
The subject of test [10] is NCI/ADR-RES ovarian.

Turning to `O=C(O)c1nc2nc(Cl)c(Cl)nc2[nH]1`, the TGI in [1], in test [2], in test [3], in test [4], in test [5] and in test [6] was > 100 µM in each case. In addition, the TGI in test [7], in [8], in test [9] and in [10] was > 100 µM in each case.
In the case of `COc1cccc(-c2nc(-c3ccc(NC(=O)OC(C)C)cc3)[nH]c2-c2ccnc(Br)c2)c1`, the GI50 in [1] is 2.19 µM; in test [2] it was 1.88 µM; in test [3], 3.61 µM; in test [4], 1.98 µM; in test [5], 2.92 µM; in test [6], 2.48 µM. Further, the GI50 in test [7] is 2.99 µM; in test [8] it was 2.22 µM; in [9], 1.53 µM; in test [10], 2.85 µM. Further, the TGI in test [1] is > 100 µM; in test [2], > 100 µM; in test [3] it was > 100 µM; in [4], 4.87 µM; in test [5], > 100 µM; in [6] it was 9.01 µM. For the same compound, the TGI is > 100 µM in [7], > 100 µM in [8], 5.83 µM in [9] and > 100 µM in test [10].
With `O=[N+]([O-])c1ccc(Cl)cc1N/N=C/c1ccnc2ccccc12`, the TGI in [1], in test [2], in [3], in test [4], in test [5] and in [6] was > 100 µM each time. For the same compound, the TGI in test [7] is > 100 µM; in test [8], > 100 µM; in test [9], 49.5 µM; in test [10], > 100 µM.
Turning to `Nc1n[nH]c2cc(F)c([C@@H]3Nc4ccc5[nH]ncc5c4[C@H]4C5CCC(C5)[C@@H]34)cc12` (stereo partly drawn), the GI50 was 0.141 µM in [1]; 0.103 µM in test [2]; 3.46 µM in test [3]; 0.218 µM in test [4]; 0.222 µM in test [5]; 0.106 µM in test [6]. The GI50 in test [7] was 0.177 µM; in test [8] it was 0.176 µM; in [9], 0.115 µM; in test [10], 0.159 µM. For the same compound, the TGI in test [1] was 2.59 µM; in [2], > 50 µM; in test [3], > 50 µM; in [4], 10 µM; in test [5], 9.12 µM; in test [6], 2.08 µM. Further, the TGI is 5.86 µM in test [7], > 50 µM in [8], 0.322 µM in [9] and 0.746 µM in test [10].
`CC1(COc2ccc3c(c2)ncn3-c2ccc3cccc(N4CCC(N)CC4)c3n2)COC1`: the GI50 in test [1] is 2.8 µM and 2.64 µM; in test [2], 2.1 µM and 1.94 µM; in test [3] it was 1.97 µM and 2.56 µM; in [4], 16.7 µM and > 10 µM; in test [5], 1.74 µM and 1.49 µM; in test [6], 1.21 µM and 1.6 µM. In addition, the GI50 was 2.17 µM and 2.48 µM in test [7]; 2.02 µM and 1.39 µM in [8]; 1.26 µM and 1.01 µM in [9]; 7.04 µM and > 10 µM in test [10]. Moreover, the TGI is 12.7 µM and 9.74 µM in test [1]; 8.36 µM and 8.92 µM in [2]; 6.73 µM and > 10 µM in test [3]; 34.4 µM and > 10 µM in test [4]; 6.59 µM and 9.02 µM in [5]; 3.3 µM and 5.19 µM in test [6]. The TGI in test [7] is 6.11 µM and 7.46 µM; in test [8], 6.44 µM and 5.86 µM; in [9], 2.65 µM and 2.59 µM; in [10], 20.6 µM and > 10 µM.
As for `CCC(=C/[C@H](C)C/C=C/C(C)=C/[C@@H](C)C(=O)[C@@H](C)[C@H](O)[C@@H](C)CC)/C=C/[C@H]1OC(=O)C=C[C@@H]1C`, the GI50 in [1], in [2], in test [3], in test [4], in test [5] and in [6] was < 0.01 µM throughout. In addition, the GI50 in [7], in [8], in test [9] and in [10] was < 0.01 µM in each case. The TGI in test [1] was determined as 0.429 µM; in test [3], 1.03 µM; in test [4], 0.276 µM; in test [5] it was 1.01 µM; in test [7], 1.88 µM; in test [8], 2.66 µM. The TGI in test [9] was < 0.01 µM; in test [10], 4.31 µM.
As to `O=C(Nc1ccc(Oc2ccc(Nc3nc4ccccc4s3)cc2)cc1)Nc1ccc(Cl)c(C(F)(F)F)c1`, the GI50 in [1] is 1.54 µM; in test [2], 2.51 µM; in test [3], 2.3 µM; in test [4], 1.23 µM; in [5], 1.82 µM; in [6], 1.51 µM. Also, the GI50 was 1.74 µM in test [7], 1.76 µM in test [8], 1.64 µM in test [9] and 1.8 µM in test [10]. The TGI came to 3.05 µM in [1]; 14.2 µM in test [2]; 5.35 µM in test [3]; 2.57 µM in test [4]; 4.03 µM in test [5]; 3.39 µM in test [6]. The TGI in [7] is 4.34 µM; in [8], > 100 µM; in test [9] it was 3.75 µM; in [10], 4.11 µM.
As for `CCCCCCCCCCCCC(O)c1ccc(C#CCCCCCCCCCO)o1` (stereo not drawn), the GI50 in test [1] is 21.7 µM; in [2] it was 3.73 µM; in [3], 15.7 µM; in test [4] it was 19.7 µM; in test [5], 20.1 µM; in test [6], 21 µM. The GI50 is 28.3 µM in test [7], 23.2 µM in test [8], 21.1 µM in test [9] and 18.3 µM in test [10]. Further, the TGI worked out at 42.3 µM in [1]; 22.6 µM in test [2]; 30.5 µM in test [3]; 40.3 µM in test [4]; 35.5 µM in test [5]; 45.5 µM in test [6]. In addition, the TGI stood at 75.4 µM in test [7], 51.4 µM in test [8], 36.8 µM in [9] and 34.3 µM in test [10].
